In PubChem BioAssay AID268 (DTP/NCI, 2004):
Several values for one entry are separate records, joined by “and”; a condition that tells them apart may be missing. Equal entries are not always repeated.

Tested on: CD2F1 mice, P1798 lymphosarcoma sc, tumor weight T/C
Assay: NCI In Vivo Anticancer Drug Screen. Data for tumor model P1798 Lymphosarcoma (subcutaneous) in CD2F1 (CDF1) mice
Conditions: endpoint: mean tumor weight, higher = larger tumour
Experimental: The antitumor activity of compounds was measured in mice bearing transplantable tumors. Survival or tumor size were measured and the results are expressed as the measurement made in the treated group (T) divided by the measurement made in the vehicle treated control group (C). The tumor model used in this assay is P1798 Lymphosarcoma (subcutaneous) in CD2F1 (CDF1) mice

[1] = dose: 50.0 mg/kg/injection, schedule: Q01DX010 (ip), vehicle: saline
[2] = dose: 12.5 mg/kg/injection, schedule: Q01DX005 (sc), vehicle: steriod suspending solution
[3] = dose: 25.0 mg/kg/injection, schedule: Q01DX005 (sc), vehicle: steriod suspending solution
[4] = dose: 25.0 mg/kg/injection, schedule: Q02DX010 (sc), vehicle: steriod suspending solution
[5] = dose: 50.0 mg/kg/injection, schedule: Q01DX005 (sc), vehicle: steriod suspending solution
[6] = dose: 100.0 mg/kg/injection, schedule: Q01DX005 (sc), vehicle: steriod suspending solution
[7] = dose: 25.0 mg/kg/injection, schedule: Q01DX010 (sc), vehicle: steriod suspending solution
[8] = dose: 100.0 mg/kg/injection, schedule: Q01DX010 (ip), vehicle: saline
[9] = dose: 200.0 mg/kg/injection, schedule: Q01DX010 (ip), vehicle: saline
[10] = dose: 400.0 mg/kg/injection, schedule: Q01DX010 (ip), vehicle: saline

## CC(C)(O)/C=C/C(=O)[C@](C)(O)[C@H]1[C@H](O)C[C@@]2(C)[C@@H]3CC=C4[C@@H](C[C@H](O)C(=O)C4(C)C)[C@]3(C)C(=O)C[C@]12C
dose: 0.2 mg/kg/injection, schedule: Q01DX009 (ip), vehicle: saline
  T/C: 91 % of control
dose: 0.4 mg/kg/injection, schedule: Q01DX009 (ip), vehicle: saline
  T/C: 81 % of control
dose: 0.8 mg/kg/injection, schedule: Q01DX009 (ip), vehicle: saline
  T/C: 95 % of control

## NCCCCC(N)C(=O)NCCCCCCCCCCNC(=O)C(N)CCCCN (stereo not given)
dose: 6.25 mg/kg/injection, schedule: Q01DX010 (ip), vehicle: saline
  T/C: 106 % of control
dose: 12.5 mg/kg/injection, schedule: Q01DX010 (ip), vehicle: saline
  T/C: 99 % of control
dose: 25.0 mg/kg/injection, schedule: Q01DX010 (ip), vehicle: saline
  T/C: 122 % of control
[1]
  T/C: 107 % of control

## CC(=O)Nc1ccc(/C=N/Nc2ccc([N+](=O)[O-])cn2)cc1
dose: 62.5 mg/kg/injection, schedule: Q01DX010 (ip), vehicle: saline
  T/C: 66 % of control
dose: 125.0 mg/kg/injection, schedule: Q01DX010 (ip), vehicle: saline
  T/C: 75 % of control
dose: 250.0 mg/kg/injection, schedule: Q01DX010 (ip), vehicle: saline
  T/C: 16 % of control

## O=C(Nc1ccc(C2=NCCN2)cc1)c1ccc(C(=O)Nc2ccc(C3=NCCN3)cc2)cc1
dose: 16.0 mg/kg/injection, schedule: Q01DX010 (ip), vehicle: saline
  T/C: 76 % of control
dose: 32.0 mg/kg/injection, schedule: Q01DX010 (ip), vehicle: saline
  T/C: 77 % of control
dose: 64.0 mg/kg/injection, schedule: Q01DX010 (ip), vehicle: saline
  T/C: 73 % of control
dose: 128.0 mg/kg/injection, schedule: Q01DX010 (ip), vehicle: saline
  T/C: 47 % of control

## CC(=O)OCC(=O)[C@@]1(O)CC[C@H]2[C@@H]3CCC4=CC(=O)[C@H](C)C[C@]4(C)[C@H]3[C@@H](O)C[C@@]21C
dose: 0.78 mg/kg/injection, schedule: Q01DX Z (sc), vehicle: steriod suspending solution
  T/C: 111 % of control
dose: 1.56 mg/kg/injection, schedule: Q01DX Z (sc), vehicle: steriod suspending solution
  T/C: 101 % of control
dose: 3.13 mg/kg/injection, schedule: Q01DX Z (sc), vehicle: steriod suspending solution
  T/C: 108 % of control
dose: 6.25 mg/kg/injection, schedule: Q01DX Z (sc), vehicle: steriod suspending solution
  T/C: 101 % of control and 88 % of control
[2]
  T/C: 61 % of control
dose: 12.5 mg/kg/injection, schedule: Q01DX010 (sc), vehicle: steriod suspending solution
  T/C: 33 % of control and 50 % of control
dose: 12.5 mg/kg/injection, schedule: Q01DX Z (sc), vehicle: steriod suspending solution
  T/C: 96 % of control
[3]
  T/C: 27 % of control
dose: 25.0 mg/kg/injection, schedule: Q01DX Z (sc), vehicle: steriod suspending solution
  T/C: 73 % of control
[4]
  T/C: 96 % of control
dose: 25.0 mg/kg/injection, schedule: Q03DX004 (sc), vehicle: steriod suspending solution
  T/C: 65 % of control
[5]
  T/C: 9 % of control
dose: 50.0 mg/kg/injection, schedule: Q01DX Z (sc), vehicle: steriod suspending solution
  T/C: 76 % of control
dose: 50.0 mg/kg/injection, schedule: Q02DX010 (sc), vehicle: steriod suspending solution
  T/C: 100 % of control
dose: 50.0 mg/kg/injection, schedule: Q03DX004 (sc), vehicle: steriod suspending solution
  T/C: 17 % of control
[6]
  T/C: 4 % of control
dose: 100.0 mg/kg/injection, schedule: Q02DX010 (sc), vehicle: steriod suspending solution
  T/C: 108 % of control
dose: 100.0 mg/kg/injection, schedule: Q03DX004 (sc), vehicle: steriod suspending solution
  T/C: 2 % of control

## CC(=O)OCC(=O)[C@@]1(O)CC[C@H]2[C@@H]3CCC4=CC(=O)[C@H](C)C[C@]4(C)[C@@]3(F)[C@@H](O)C[C@@]21C
dose: 3.75 mg/kg/injection, schedule: Q01DX Z (sc), vehicle: steriod suspending solution
  T/C: 94 % of control
dose: 6.25 mg/kg/injection, schedule: Q01DX010 (sc), vehicle: steriod suspending solution
  T/C: 111 % of control
dose: 6.25 mg/kg/injection, schedule: Q02DX010 (sc), vehicle: steriod suspending solution
  T/C: 94 % of control
dose: 7.5 mg/kg/injection, schedule: Q01DX Z (sc), vehicle: steriod suspending solution
  T/C: 111 % of control
[2]
  T/C: 38 % of control
dose: 12.5 mg/kg/injection, schedule: Q02DX010 (sc), vehicle: steriod suspending solution
  T/C: 101 % of control
dose: 15.0 mg/kg/injection, schedule: Q01DX Z (sc), vehicle: steriod suspending solution
  T/C: 74 % of control
[3]
  T/C: 5 % of control
[7]
  T/C: 1 % of control and 2 % of control and 26 % of control
[4]
  T/C: 89 % of control
dose: 30.0 mg/kg/injection, schedule: Q01DX Z (sc), vehicle: steriod suspending solution
  T/C: 74 % of control
[5]
  T/C: 2 % of control
dose: 60.0 mg/kg/injection, schedule: Q01DX Z (sc), vehicle: steriod suspending solution
  T/C: 88 % of control
[6]
  T/C: 1 % of control

## C[C@]12CC[C@H](OC3OC(CO)C(O)C(O)C3O)C[C@H]1CC[C@@H]1[C@@H]2CC[C@]2(C)[C@@H](C3=CCOC3=O)CC[C@]12O (stereo not given in full)
dose: 0.13 mg/kg/injection, schedule: Q01DX010 (ip), vehicle: saline
  T/C: 71 % of control
dose: 0.25 mg/kg/injection, schedule: Q01DX010 (ip), vehicle: saline
  T/C: 96 % of control

## Nc1nc(=O)n(C2CC(O)C(CO)O2)cc1Br (stereo not given)
[1]
  T/C: 81 % of control
[8]
  T/C: 65 % of control
[9]
  T/C: 39 % of control
[10]
  T/C: 29 % of control
dose: 800.0 mg/kg/injection, schedule: Q01DX010 (ip), vehicle: saline
  T/C: 7 % of control

## O=C(NCCCCC(NC(=O)c1ccccc1)C(=O)NCCCCCCNCCCCCCNC(=O)C(CCCCNC(=O)c1ccccc1)NC(=O)c1ccccc1)c1ccccc1 (stereo not given)
[1]
  T/C: 98 % of control
[8]
  T/C: 85 % of control
[9]
  T/C: 116 % of control
[10]
  T/C: 80 % of control

## CC1CCC2C(C)C3C(CC4C5CC=C6CC(OC7OC(CO)C(O)C(OC8OC(CO)C(O)C(O)C8O)C7OC7OC(C)C(O)C(O)C7O)CCC6(C)C5CCC43C)N2C1 (stereo not given)
[7]
  T/C: 65 % of control
dose: 50.0 mg/kg/injection, schedule: Q01DX010 (sc), vehicle: steriod suspending solution
  T/C: 44 % of control
dose: 100.0 mg/kg/injection, schedule: Q01DX010 (sc), vehicle: steriod suspending solution
  T/C: 16 % of control
dose: 200.0 mg/kg/injection, schedule: Q01DX010 (sc), vehicle: steriod suspending solution
  T/C: 9 % of control and 26 % of control
dose: 400.0 mg/kg/injection, schedule: Q01DX010 (sc), vehicle: steriod suspending solution
  T/C: 30 % of control

## CCC1=C(c2cc(Cl)c3ccccc3c2OCC(=O)O)OC(CC)(C(=O)c2cc(Cl)c3ccccc3c2OCC(=O)O)CC1 (stereo not given)
dose: 240.0 mg/kg/injection, schedule: Q01DX010 (ip), vehicle: steriod suspending solution
  T/C: 74 % of control
dose: 480.0 mg/kg/injection, schedule: Q01DX010 (ip), vehicle: steriod suspending solution
  T/C: 80 % of control

## O=c1cnn(C2OC(CO)C(O)C2O)c(=O)[nH]1 (stereo not given)
[1]
  T/C: 80 % of control
[8]
  T/C: 73 % of control
[9]
  T/C: 49 % of control
[10]
  T/C: 17 % of control

## NC(Cc1ccc(N(CCCl)CCCl)cc1)C(=O)O (stereo not given)
dose: 2.5 mg/kg/injection, schedule: Q01DX010 (ip), vehicle: saline
  T/C: 51 % of control
dose: 5.0 mg/kg/injection, schedule: Q01DX010 (ip), vehicle: saline
  T/C: 39 % of control
